Measurements reported in patent publication US20250059188A1, “ARYLSULPHONAMIDE COMPOUNDS” (Anaxis Pharma Pty Ltd, priority 2021, published 2025).

How the values were obtained:
[1] = tested on: U937 human histiocytic leukemia cell line; assay: Inhibition of TSQ induced necroptosis in U937 cells (CellTitre-Glo); settings: Homo sapiens, U-937, TSQ cocktail (TNF, Smac mimetic, Q-VD-OPh), 48 hours, read-out: Inhibition of TSQ-induced necroptosis (IC50 cell-based assay)
Experimental: Cellular Assay: Screening Compounds for Inhibition of TSQ Induced Necroptosis, 384 Well Plate Format.
(§1) • Cell Line ID: U937 human histiocytic leukemia cell line. • Cell Concentration (cells/well): Final cell density is 20000 cells per well. • Cell growth medium: HT-RPMI medium+7.4% Fetal Bovine Serum (FBS). Cells are cultured in Corning 150 cm^2 tissue culture flasks with vented caps at 37° C./5% CO2. • Incubation: Plates were incubated at 37° C./5% CO2 in a humidified incubator for 48 hours following addition of compounds and death stimuli (TSQ cocktail). • Compound concentration: 36 μM starting concentration, 1:3 dilution, 10 point • DMSO final concentration (% v/v): 0.3%. Compounds in TSQ Cocktail (T: TNF; S: Smac Mimetic; Q: Q-VD-OPh) and their Final Concentrations: • hTNF-Fc (100 ng/ml)—produced by standard procedures as shown in Bossen et al., J. Biol. Chem., 2006, 281(20), 13964-13971. • Compound A (500 nM) —Smac mimetic, Tetralogic and SYNthesis med chem • Q-VD-OPh (10 μM) —MP Biomedicals
(§2) The cellular assay was carried out according to the following steps: • 1. Each well was prepared by sequential addition of: • a. DMSO (control; columns 1-2 and 23-24) or compound in DMSO—addition was performed using acoustic transfer of nL volumes of stock compound to give final test concentrations of 36, 12, 4, 1.3, 0.44, 0.148, 0.049, 0.016, 0.005 and 0.002 μM. All wells were backfilled with DMSO to a final total volume in the well of 100 nL. • b. Following compound/DMSO addition in step (a), 40 μL of cell suspension (5×10^5 cells/mL) was added to provide a final cell concentration of 20,000 cells per well, and • c. Following cell addition in step (b), 10 μL of 5×TSQ cocktail (except to positive controls; columns 1 and 23) was added to each well. • 2. After 48 hours, plate was removed from the 37° C. incubator and equilibrated to room temperature for 45 minutes. • 3. 15 μL of room temperature CellTitre-Glo2™ (Promega™) was added to each well. • 4. Shook plates for 2 minutes (˜600 rpm) and incubated at room temperature for 15 minutes to allow signal to stabilise. • 5. Read luminescence readout on a plate reader.
Percent viability was calculated for each compound according to equation (2): […]
(§3) 10 point titration curves were fitted with the 4 parameter logistic nonlinear regression model and the IC50 reported reflect the inflection point of the curve for curve fitting.
(§4) • Assay involving the TSQ cocktail (T: TNF; S: Smac mimetic; Q: Q-VD-OPh): TSQ treatment ensures that cells specifically undergo necroptotic cell death. TNF activates the TNF receptor, Smac mimetic directs the signal away from proinflammatory signaling and toward the RIPK1/RIPK3-mediated cell death pathways, and Q-VD-OPh ensures that the apoptotic response is blocked leaving only the programmed necrosis response. The compounds' activity (solution in DMSO) tested in this TSQ-induced assay was evaluated by determining the number of viable cells in culture by measuring the amount of ATP present as measured by CelltiterGlo. • Counter screen: In parallel, all compounds were tested for their ability to affect cell viability. The same U937 cells were treated with compound in DMSO without the TSQ cocktail. This counter screen enabled evaluation of off-target effects. In this case, cell viability was measured by CelltiterGlo.

[2] = target: human RIPK3 (Homo sapiens (Human), UniProt Q9Y572); assay: KINOMEscan binding assay, human RIPK3; settings: equilibrium dissociation constant
Experimental: (§5) Binding affinity of the test compounds for human MLKL (full length), mouse MLKL (full length), human RIPK1 and human RIPK3 was determined using the KINOMEscan™ technology developed by DiscoverX (USA; http://www.discoverx.com). The assay was conducted according to manufacturer instructions.
(§6) Kinase assays. For most assays, kinase-tagged T7 phage strains were grown in parallel in 24-well blocks in an E. coli host derived from the BL21 strain. E. coli were grown to log-phase and infected with T7 phage from a frozen stock (multiplicity of infection=0.4) and incubated with shaking at 32° C. until lysis (90-150 minutes). The lysates were centrifuged (6,000×g) and filtered (0.2 μm) to remove cell debris. The remaining kinases were produced in HEK-293 cells and subsequently tagged with DNA for qPCR detection. […] The liganded beads were blocked with excess biotin and washed with blocking buffer (SeaBlock (Pierce), 1% BSA, 0.05% Tween 20, 1 mM DTT) to remove unbound ligand and to reduce non-specific phage binding. […] All reactions were performed in polypropylene 384-well plates in a final volume of 20 μL. […] The kinase concentration in the eluates was measured by qPCR.
(§7) An 11-point 3-fold serial dilution of each test compound was prepared in 100% DMSO at 100× final test concentration and subsequently diluted to 1× in the assay (final DMSO concentration=1%). Most Kos were determined using a compound top concentration=30,000 nM.
(§8) KD for each test compound was calculated with a standard dose-response curve using the Hill equation (equation (1)): […]
(§9) The Hill Slope was set to −1.
(§10) Curves were fitted using a non-linear least square fit with the Levenberg-Marquardt algorithm.

[3] = tested on: U937 cells; assay: Counter screen: U937 cell viability without TSQ cocktail (off-target effect); set-up: species or system human; settings: Homo sapiens, U-937, compound without TSQ cocktail, read-out: Off-target effect (IC50 cell-based assay)
Experimental: as §1, §2, §3, §4

[4] = target: human RIPK1 (Homo sapiens (Human), UniProt Q13546); assay: KINOMEscan binding assay, human RIPK1; settings: equilibrium dissociation constant
Experimental: as §5, §6, §7, §8, §9, §10

[5] = target: human MLKL (full length) (Homo sapiens (Human), UniProt Q8NB16); assay: KINOMEscan binding assay, human MLKL (full length); settings: equilibrium dissociation constant
Experimental: as §5, §6, §7, §8, §9, §10

human MLKL (full length), sequence (Q8NB16 whole entry): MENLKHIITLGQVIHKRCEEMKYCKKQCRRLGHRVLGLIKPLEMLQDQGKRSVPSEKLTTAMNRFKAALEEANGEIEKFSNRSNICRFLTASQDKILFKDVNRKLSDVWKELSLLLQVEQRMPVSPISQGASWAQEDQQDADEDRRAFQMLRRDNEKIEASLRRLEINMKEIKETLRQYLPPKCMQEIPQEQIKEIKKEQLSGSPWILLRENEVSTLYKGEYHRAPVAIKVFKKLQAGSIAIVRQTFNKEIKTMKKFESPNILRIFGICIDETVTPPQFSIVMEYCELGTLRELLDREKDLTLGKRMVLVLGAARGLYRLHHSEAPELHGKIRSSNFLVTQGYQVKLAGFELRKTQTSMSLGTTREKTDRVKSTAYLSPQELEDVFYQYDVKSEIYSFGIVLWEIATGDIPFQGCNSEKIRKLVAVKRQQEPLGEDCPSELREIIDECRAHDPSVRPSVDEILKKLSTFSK
human RIPK1, sequence (Q13546 whole entry): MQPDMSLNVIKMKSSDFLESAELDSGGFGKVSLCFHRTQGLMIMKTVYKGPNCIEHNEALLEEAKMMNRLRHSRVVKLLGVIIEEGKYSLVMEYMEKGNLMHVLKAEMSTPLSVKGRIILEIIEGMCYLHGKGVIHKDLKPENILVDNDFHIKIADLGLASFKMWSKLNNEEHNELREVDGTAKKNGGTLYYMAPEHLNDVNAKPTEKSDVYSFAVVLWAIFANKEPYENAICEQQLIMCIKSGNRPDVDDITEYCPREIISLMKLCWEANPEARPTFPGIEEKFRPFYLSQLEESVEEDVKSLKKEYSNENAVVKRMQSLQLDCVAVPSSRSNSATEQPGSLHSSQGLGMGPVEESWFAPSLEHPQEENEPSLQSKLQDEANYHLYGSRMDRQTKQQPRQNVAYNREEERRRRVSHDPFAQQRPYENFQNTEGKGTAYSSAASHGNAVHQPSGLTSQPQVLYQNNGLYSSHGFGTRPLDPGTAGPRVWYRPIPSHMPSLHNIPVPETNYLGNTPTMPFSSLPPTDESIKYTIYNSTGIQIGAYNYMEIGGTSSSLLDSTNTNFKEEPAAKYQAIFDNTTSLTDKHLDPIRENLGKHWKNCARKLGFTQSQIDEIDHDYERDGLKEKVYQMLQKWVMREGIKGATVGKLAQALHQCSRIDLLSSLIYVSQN
human RIPK3, sequence (Q9Y572 whole entry): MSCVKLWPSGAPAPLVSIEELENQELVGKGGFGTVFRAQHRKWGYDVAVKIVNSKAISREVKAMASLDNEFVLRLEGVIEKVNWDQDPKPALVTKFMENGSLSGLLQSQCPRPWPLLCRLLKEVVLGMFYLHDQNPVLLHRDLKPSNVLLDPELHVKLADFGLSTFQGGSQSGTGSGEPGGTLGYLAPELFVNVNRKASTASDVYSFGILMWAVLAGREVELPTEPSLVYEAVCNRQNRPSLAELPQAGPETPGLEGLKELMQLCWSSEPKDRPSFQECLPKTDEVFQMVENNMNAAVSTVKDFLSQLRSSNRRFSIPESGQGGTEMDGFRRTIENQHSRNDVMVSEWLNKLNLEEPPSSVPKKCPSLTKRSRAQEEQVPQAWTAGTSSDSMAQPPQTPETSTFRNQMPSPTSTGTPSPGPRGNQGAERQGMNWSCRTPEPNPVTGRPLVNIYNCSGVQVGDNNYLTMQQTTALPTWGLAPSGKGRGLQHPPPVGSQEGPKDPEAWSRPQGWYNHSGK

Structure (SMILES) | IC50 [1] [µM] | Kd [2] [µM] | IC50 [3] [µM] | Kd [4] [µM] | Kd [5] [µM]
C[C@H](Oc1cc(-c2nn(C)c3c(-c4cnn(C5CCOCC5)c4)cnc(N)c23)ccc1NS(=O)(=O)CC(F)(F)F)c1ccc(F)cc1 [Compound 44, (S)—N-(4-(4-amino-1-methyl-7-(1-(tetrahydro-2H-pyran-4-yl)-1H-pyrazol-4-yl)-1H-pyrazolo[4,3-c]pyridin-3-yl)-2-(1-(4-fluorophenyl)ethoxy)phenyl)-2,2,2-trifluoroethane-1-sulfonamide] | 0.01 to 1 | > 10 | > 10 | > 10 | 0.001 to 0.1
C[C@H](Oc1cc(-c2nn(C)c3c(-c4ccc(C(F)(F)F)nc4)cnc(N)c23)ccc1NS(=O)(=O)C(F)F)c1ccc(F)cc1 [Compound 117, (S)-N-(4-(4-amino-1-methyl-7-(6-(trifluoromethyl)pyridin-3-yl)-1H-pyrazolo[4,3-c]pyridin-3-yl)-2-(1-(4-fluorophenyl)ethoxy)phenyl)-1,1-difluoromethanesulfonamide] | 0.01 to 1 | > 10 | > 10 | > 10 | 0.001 to 0.1
C[C@H](Oc1cc(-c2nn(C)c3c(-c4ccc(N5CCOCC5)nc4)cnc(N)c23)ccc1NS(=O)(=O)C(F)F)c1ccc(F)cc1 [Compound 115, (S)-N-(4-(4-amino-1-methyl-7-(6-morpholinopyridin-3-yl)-1H-pyrazolo[4,3-c]pyridin-3-yl)-2-(1-(4-fluorophenyl)ethoxy)phenyl)-1,1-difluoromethanesulfonamide] | 0.01 to 1 | > 10 | > 10 | > 10 | 0.001 to 0.1
C[C@H](Oc1cc(-c2nn(C)c3c(-c4cnn(C5(CN)CC5)c4)cnc(N)c23)ccc1NS(=O)(=O)C(F)F)c1ccc(F)cc1 [Compound 89, (S)—N-(4-(4-amino-7-(1-(1-(aminomethyl)cyclopropyl)-1H-pyrazol-4-yl)-1-methyl-1H-pyrazolo[4,3-c]pyridin-3-yl)-2-(1-(4-fluorophenyl)ethoxy)phenyl)-1,1-difluoromethanesulfonamide] | 0.01 to 1 | > 10 | > 10 | > 10 | < 0.001
COc1ccc([C@H](C)Oc2cc(-c3nn(C)c4c(-c5cnn(C6CCOCC6)c5)cnc(N)c34)ccc2NS(=O)(=O)C(F)F)cc1 [Compound 129, (S)-N-(4-(4-amino-1-methyl-7-(1-(tetrahydro-2H-pyran-4-yl)-1H-pyrazol-4-yl)-1H-pyrazolo[4,3-c]pyridin-3-yl)-2-(1-(4-methoxyphenyl)ethoxy)phenyl)-1,1-difluoromethanesulfonamide] | 0.01 to 1 |  | > 10 |  | 
C[C@H](Oc1cc(-c2nn(C)c3c(-c4ccc(Cl)cc4)cnc(N)c23)ccc1NS(=O)(=O)C(F)F)c1ccc(F)cc1 [Compound 87, (S)-N-(4-(4-amino-7-(4-chlorophenyl)-1-methyl-1H-pyrazolo[4,3-c]pyridin-3-yl)-2-(1-(4-fluorophenyl)ethoxy)phenyl)-1,1-difluoromethanesulfonamide] | 1 to 10 | > 10 | > 10 | > 10 | 0.001 to 0.1
C[C@H](Oc1cc(-c2nn(C)c3c(-c4cnn(C5CCC(C(=O)O)CC5)c4)cnc(N)c23)ccc1NS(=O)(=O)C(F)F)c1ccc(F)cc1 (stereo partly drawn) [Compound 173, 4-(4-{4-amino-3-[4-(difluoromethanesulfonamido)-3-[(1S)-1-(4-fluorophenyl)ethoxy]phenyl]-1-methyl-1H-pyrazolo[4,3-c]pyridin-7-yl}-1H-pyrazol-1-yl)cyclohexane-1-carboxylic acid] | 1 to 10 |  | > 10 |  | 
Cc1cnccc1-c1cnc(N)c2c(-c3ccc(NS(=O)(=O)C(F)F)c(O[C@@H](C)c4ccc(F)cc4)c3)nn(C)c12 [Compound 32, (S)-N-(4-(4-amino-1-methyl-7-(3-methylpyridin-4-yl)-1H-pyrazolo[4,3-c]pyridin-3-yl)-2-(1-(4-fluorophenyl)ethoxy)phenyl)-1,1-difluoromethanesulfonamide] | 1 to 10 |  | > 10 |  | 
CCS(=O)(=O)Nc1ccc(-c2cccc3[nH]nc(N)c23)cc1OCc1ccc(F)cc1 [Compound 62, N-(4-(3-Amino-1H-indazol-4-yl)-2-((4-fluorophenyl)methoxy)phenyl)ethane-1-sulfonamide] | 1 to 10 |  | > 10 |  | 
Cn1nc(-c2ccc(NS(=O)(=O)C(F)F)c(OCc3ccc(F)cc3)c2)c2c(N)ncc(-c3cnn(CCO)c3)c21 [Compound 12, N-(4-(4-amino-7-(1-(2-hydroxyethyl)-1H-pyrazol-4-yl)-1-methyl-1H-pyrazolo[4,3-c]pyridin-3-yl)-2-((4-fluorobenzyl)oxy)phenyl)-1,1-difluoromethanesulfonamide] | 1 to 10 |  | > 10 |  | 
Cn1nc(-c2ccc(NS(=O)(=O)C(F)F)c(OCc3ccc(F)cc3)c2)c2c(N)ncc(-c3ccncc3)c21 [Compound 14, N-(4-(4-amino-1-methyl-7-(pyridin-4-yl)-1H-pyrazolo[4,3-c]pyridin-3-yl)-2-((4-fluorobenzyl)oxy)phenyl)-1,1-difluoromethanesulfonamide] | 1 to 10 |  | > 10 |  | 
Cn1nc(-c2ccc(NS(=O)(=O)C(F)F)c(OCc3ccc(Cl)cn3)c2)c2c(N)ncc(-c3cnn(C4CCOCC4)c3)c21 [Compound 136, N-(4-(4-amino-1-methyl-7-(1-(tetrahydro-2H-pyran-4-yl)-1H-pyrazol-4-yl)-1H-pyrazolo[4,3-c]pyridin-3-yl)-2-((5-chloropyridin-2-yl)methoxy)phenyl)-1,1-difluoromethanesulfonamide] | 0.01 to 1 |  | > 10 |  | 
Cc1noc(C)c1-c1cnc(N)c2c(-c3ccc(NS(=O)(=O)C(F)F)c(O[C@@H](C)c4ccc(F)cc4)c3)nn(C)c12 [Compound 33, (S)-N-(4-(4-amino-7-(3,5-dimethylisoxazol-4-yl)-1-methyl-1H-pyrazolo[4,3-c]pyridin-3-yl)-2-(1-(4-fluorophenyl)ethoxy)phenyl)-1,1-difluoromethanesulfonamide] |  | > 10 |  | > 10 | 0.001 to 0.1
CCS(=O)(=O)Nc1ccc(-c2nn(C)c3c(-c4cccnc4)cnc(N)c23)cc1OCc1ccc(F)cc1 [Compound 1, N-(4-(4-amino-1-methyl-7-(pyridin-3-yl)-1H-pyrazolo[4,3-c]pyridin-3-yl)-2-((4-fluorobenzyl)oxy)phenyl)ethanesulfonamide] | 1 to 10 | > 10 | > 10 | > 10 | 
